Results from US20240140938A1, “PREPARATION OF TETRAHYDROINDAZOLE DERIVATIVES AS NOVEL DIACYLGLYCERIDE O-ACYLTRANSFERASE 2 INHIBITORS” (MERCK SHARP & DOHME LLC, priority 2020, published 2024).

These compounds were tested against human DGAT2 (hDGAT2) (Homo sapiens (Human), UniProt Q96PD7) (assay: DGAT2 Enzymatic Activity Assay). Conditions: hDGAT2 Sf-9 membrane prep; 13C18-triolein product by LC/MS/MS; 25 μM diolein, 5 μM 13C oleoyl-CoA.
human DGAT2 (hDGAT2), sequence (Q96PD7 whole entry): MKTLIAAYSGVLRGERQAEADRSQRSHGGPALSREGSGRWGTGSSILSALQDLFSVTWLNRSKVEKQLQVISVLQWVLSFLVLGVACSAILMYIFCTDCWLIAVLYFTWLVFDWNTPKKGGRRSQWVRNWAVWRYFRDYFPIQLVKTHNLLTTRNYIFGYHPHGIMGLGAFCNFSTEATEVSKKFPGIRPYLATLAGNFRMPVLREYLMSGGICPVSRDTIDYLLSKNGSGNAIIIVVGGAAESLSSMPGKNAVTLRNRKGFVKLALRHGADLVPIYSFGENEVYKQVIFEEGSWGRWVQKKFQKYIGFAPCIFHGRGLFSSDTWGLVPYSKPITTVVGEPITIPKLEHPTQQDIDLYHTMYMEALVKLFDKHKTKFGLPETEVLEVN
Assay type: biochemical
Outline: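 Enzyme source was membrane fractions from Sf-9 cells infected with untagged hDGAT2 baculovirus. Reactions ran at room temperature, and product 13C18-triolein was quantified by LC/MS/MS against a 13C21-triolein internal standard. % inhibition was normalised to high and low controls, and IC50 derived from it.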
In the case of `CC(c1nccs1)n1nc(-c2cc(OC(F)F)ccc2F)c2c1C[C@H](C(=O)NC1(C)CS(=O)(=O)C1)CC2` (stereo partly drawn) [Example 80, (6R)-3-(5-(difluoromethoxy)-2-fluorophenyl)-N-(3-methyl-1,1-dioxidothietan-3-yl)-1-(1-(thiazol-2-yl)ethyl)-4,5,6,7-tetrahydro-1H-indazole-6-carboxamide], the IC50 is reported as 174 nM.
`CC(C)Oc1ccc(F)c(-c2nn(C(C)C)c3c2CC[C@@H](C(=O)NC2(C)CS(=O)(=O)C2)C3)c1` [Example 81, (R)-3-(2-fluoro-5-isopropoxyphenyl)-1-isopropyl-N-(3-methyl-1,1-dioxidothietan-3-yl)-4,5,6,7-tetrahydro-1H-indazole-6-carboxamide] gave an IC50 of 24.5 nM.
Work on `CC(C)n1nc(-c2cc(OC(F)F)ccc2F)c2c1C[C@H](C(=O)NC1(C)CS(=O)(=O)C1)CC2` [Example 82, (R)-3-(5-(difluoromethoxy)-2-fluorophenyl)-1-isopropyl-N-(3-methyl-1,1-dioxidothietan-3-yl)-4,5,6,7-tetrahydro-1H-indazole-6-carboxamide] yielded an IC50 of 30.8 nM.
`CC(C)n1nc(-c2cc(C3CC3)ccc2F)c2c1C[C@H](C(=O)NC1(C)CS(=O)(=O)C1)CC2` [Example 83, (R)-3-(5-cyclopropyl-2-fluorophenyl)-1-isopropyl-N-(3-methyl-1,1-dioxidothietan-3-yl)-4,5,6,7-tetrahydro-1H-indazole-6-carboxamide] showed an IC50 of 46 nM.
`CC(C)n1nc(-c2cc(OC(F)F)ccc2Cl)c2c1C[C@H](C(=O)NC1(C)CS(=O)(=O)C1)CC2` [Example 84, (R)-3-(2-chloro-5-(difluoromethoxy)phenyl)-1-isopropyl-N-(3-methyl-1,1-dioxidothietan-3-yl)-4,5,6,7-tetrahydro-1H-indazole-6-carboxamide] showed an IC50 of 7.92 nM.
`CC(C)n1nc(-c2cc(OC3CC3)ccc2F)c2c1C[C@H](C(=O)NC1(C)CS(=O)(=O)C1)CC2` [Example 85, (R)-3-(5-cyclopropoxy-2-fluorophenyl)-1-isopropyl-N-(3-methyl-1,1-dioxidothietan-3-yl)-4,5,6,7-tetrahydro-1H-indazole-6-carboxamide] gave an IC50 of 15.6 nM.
`Cc1ncc(OC(F)F)cc1-c1nn(C(C)C)c2c1CC[C@@H](C(=O)NC1(C)CS(=O)(=O)C1)C2` [Example 86, (R)-3-(5-(difluoromethoxy)-2-methylpyridin-3-yl)-1-isopropyl-N-(3-methyl-1,1-dioxidothietan-3-yl)-4,5,6,7-tetrahydro-1H-indazole-6-carboxamide] showed an IC50 of 170 nM.
With `CCOc1cc(F)c(F)c(-c2nn(C(C)C)c3c2CC[C@@H](C(=O)NC2(C)CS(=O)(=O)C2)C3)c1` [Example 87, (R)-3-(5-ethoxy-2,3-difluorophenyl)-1-isopropyl-N-(3-methyl-1,1-dioxidothietan-3-yl)-4,5,6,7-tetrahydro-1H-indazole-6-carboxamide] the IC50 was 3.6 nM.
Compound `CC(C)n1nc(-c2cc(OC(F)(F)F)cnc2Cl)c2c1C[C@H](C(=O)NC1(C)CS(=O)(=O)C1)CC2` [Example 88, (R)-3-(2-chloro-5-(trifluoromethoxy)pyridin-3-yl)-1-isopropyl-N-(3-methyl-1,1-dioxidothietan-3-yl)-4,5,6,7-tetrahydro-1H-indazole-6-carboxamide] has an IC50 of 275 nM.
Work on `Cc1ncc(OC(F)F)cc1-c1nn(C(C)C)c2c1CC[C@@H](C(=O)NC1(C)CC(F)(F)C1)C2` [Example 89, (R)-N-(3,3-difluoro-1-methylcyclobutyl)-3-(5-(difluoromethoxy)-2-methylpyridin-3-yl)-1-isopropyl-4,5,6,7-tetrahydro-1H-indazole-6-carboxamide] yielded an IC50 of 318 nM.
For `CC(C)n1nc(-c2cccc(C3(C(F)(F)F)CC3)c2)c2c1C[C@H](C(=O)NC1(C)CS(=O)(=O)C1)CC2` [Example 90, (R)-1-isopropyl-N-(3-methyl-1,1-dioxidothietan-3-yl)-3-(3-(1-(trifluoromethyl)cyclopropyl)phenyl)-4,5,6,7-tetrahydro-1H-indazole-6-carboxamide], the IC50 was > 10000 nM.
`CC(C)n1nc(-c2cccc(C3(C#N)CC3)c2)c2c1C[C@H](C(=O)NC1(C)CS(=O)(=O)C1)CC2` [Example 91, (R)-3-(3-(1-cyanocyclopropyl)phenyl)-1-isopropyl-N-(3-methyl-1,1-dioxidothietan-3-yl)-4,5,6,7-tetrahydro-1H-indazole-6-carboxamide] was tested, and the IC50 was > 10000 nM.
`CC(C)n1nc(-c2cc(C(C)(F)F)ncc2F)c2c1C[C@H](C(=O)NC1(C)CCS(=O)(=O)CC1)CC2` [Example 92, (R)-3-(2-(1,1-difluoroethyl)-5-fluoropyridin-4-yl)-1-isopropyl-N-(4-methyl-1,1-dioxidotetrahydro-2H-thiopyran-4-yl)-4,5,6,7-tetrahydro-1H-indazole-6-carboxamide] gave an IC50 of 1210 nM.
For `Cc1nc2c(-c3nn(C(C)C)c4c3CC[C@@H](C(=O)NC3(C)CS(=O)(=O)C3)C4)cccc2o1` [Example 93, (R)-1-isopropyl-N-(3-methyl-1,1-dioxidothietan-3-yl)-3-(2-methylbenzo[d]oxazol-4-yl)-4,5,6,7-tetrahydro-1H-indazole-6-carboxamide], the IC50 was > 10000 nM.
With `CC(C)n1nc(-c2cccc(CC#N)c2)c2c1C[C@H](C(=O)NC1(C)CS(=O)(=O)C1)CC2` [Example 94, (R)-3-(3-(cyanomethyl)phenyl)-1-isopropyl-N-(3-methyl-1,1-dioxidothietan-3-yl)-4,5,6,7-tetrahydro-1H-indazole-6-carboxamide] the IC50 was > 10000 nM.
In the case of `CC(C)n1nc(-c2cncc(C(=O)NC(C)(C)C)c2)c2c1C[C@H](C(=O)NC1(C)CS(=O)(=O)C1)CC2` [Example 95, (R)-3-(5-(tert-butylcarbamoyl)pyridin-3-yl)-1-isopropyl-N-(3-methyl-1,1-dioxidothietan-3-yl)-4,5,6,7-tetrahydro-1H-indazole-6-carboxamide], the IC50 is reported as > 10000 nM.
With `CC(C)n1nc(-c2cccc(OCC#N)c2)c2c1C[C@H](C(=O)NC1(C)CS(=O)(=O)C1)CC2` [Example 96, (R)-3-(3-(cyanomethoxy)phenyl)-1-isopropyl-N-(3-methyl-1,1-dioxidothietan-3-yl)-4,5,6,7-tetrahydro-1H-indazole-6-carboxamide] the IC50 was > 10000 nM.
For `CC(C)n1nc(-c2cccc(S(C)(=O)=O)c2)c2c1C[C@H](C(=O)NC1(C)CS(=O)(=O)C1)CC2` [Example 98, (R)-1-isopropyl-N-(3-methyl-1,1-dioxidothietan-3-yl)-3-(3-(methylsulfonyl)phenyl)-4,5,6,7-tetrahydro-1H-indazole-6-carboxamide], the IC50 was > 10000 nM.
`CCNS(=O)(=O)c1cccc(-c2nn(C(C)C)c3c2CC[C@@H](C(=O)NC2(C)CS(=O)(=O)C2)C3)c1` [Example 99, (R)-3-(3-(N-ethylsulfamoyl)phenyl)-1-isopropyl-N-(3-methyl-1,1-dioxidothietan-3-yl)-4,5,6,7-tetrahydro-1H-indazole-6-carboxamide] was tested, and the IC50 was > 10000 nM.
Compound `CCc1ccc(F)c(-c2nn(C(C)C)c3c2CC[C@@H](C(=O)NC2(C)CS(=O)(=O)C2)C3)c1` [Example 100, (R)-3-(5-ethyl-2-fluorophenyl)-1-isopropyl-N-(3-methyl-1,1-dioxidothietan-3-yl)-4,5,6,7-tetrahydro-1H-indazole-6-carboxamide] has an IC50 of 158 nM.
With `CC(C)n1nc(-c2cc(C#N)ccc2F)c2c1C[C@H](C(=O)NC1(C)CS(=O)(=O)C1)CC2` [Example 101, (R)-3-(5-cyano-2-fluorophenyl)-1-isopropyl-N-(3-methyl-1,1-dioxidothietan-3-yl)-4,5,6,7-tetrahydro-1H-indazole-6-carboxamide] the IC50 was > 10000 nM.
`CC(C)n1nc(-c2cccc(C3(O)CCC3)c2)c2c1C[C@H](C(=O)NC1(C)CC(F)(F)C1)CC2` [Example 103, (R)-N-(3,3-difluoro-1-methylcyclobutyl)-3-(3-(1-hydroxycyclobutyl)phenyl)-1-isopropyl-4,5,6,7-tetrahydro-1H-indazole-6-carboxamide] was tested, and the IC50 was > 10000 nM.
Work on `CC(C)n1nc(-c2cncc(OC(F)(F)C(F)F)c2)c2c1C[C@H](C(=O)N[C@@]1(C)CCS(=O)(=O)C1)CC2` [Example 105, (R)-1-isopropyl-N-((S)-3-methyl-1,1-dioxidotetrahydrothiophen-3-yl)-3-(5-(1,1,2,2-tetrafluoroethoxy)pyridin-3-yl)-4,5,6,7-tetrahydro-1H-indazole-6-carboxamide] yielded an IC50 of 118 nM.
Compound `CC(C)n1nc(-c2cncc(OC(F)(F)C(F)F)c2)c2c1C[C@H](C(=O)NC1(C)CCS(=O)(=O)CC1)CC2` [Example 106, (R)-1-isopropyl-N-(4-methyl-1,1-dioxidotetrahydro-2H-thiopyran-4-yl)-3-(5-(1,1,2,2-tetrafluoroethoxy)pyridin-3-yl)-4,5,6,7-tetrahydro-1H-indazole-6-carboxamide] has an IC50 of 204 nM.
`CC1(NC(=O)[C@@H]2CCc3c(-c4cc(OC(F)F)ccc4F)nn(S(=O)(=O)C4CC4)c3C2)CS(=O)(=O)C1` [Example 116, (R)-1-(cyclopropylsulfonyl)-3-(5-(difluoromethoxy)-2-fluorophenyl)-N-(3-methyl-1,1-dioxidothietan-3-yl)-4,5,6,7-tetrahydro-1H-indazole-6-carboxamide] gave an IC50 of 68.1 nM.

Same assay, conditions: unit given as nm; hDGAT2 Sf-9 membrane prep; 13C18-triolein product by LC/MS/MS
For `CC1(NC(=O)[C@@H]2CCc3c(-c4cc(OC(F)F)ccc4F)nn(S(C)(=O)=O)c3C2)CS(=O)(=O)C1` [Example 115, (R)-3-(5-(difluoromethoxy)-2-fluorophenyl)-N-(3-methyl-1,1-dioxidothietan-3-yl)-1-(methylsulfonyl)-4,5,6,7-tetrahydro-1H-indazole-6-carboxamide], the IC50 was 108 nM.
With `CC1(NC(=O)C2Cc3c(c(-c4cccc(OC(F)F)c4)nn3C3CCOCC3)C(F)(F)C2)CCS(=O)(=O)C1` (stereo not drawn) [Example 117, 3-(3-(difluoromethoxy)phenyl)-4,4-difluoro-N-(3-methyl-1,1-dioxidotetrahydrothiophen-3-yl)-1-(tetrahydro-2H-pyran-4-yl)-4,5,6,7-tetrahydro-1H-indazole-6-carboxamide] the IC50 was 499 nM.
